Test results published in publication PMC4567917 (Bioorganic chemistry, 2015).
Where two headings read alike, the source gives them in different places. One block for each molecule: values may come before it. Non-standard residues stand in square brackets, D forms with d. No end group written: not given here. *: point of attachment. Biotin = O=C1N[C@H]2[C@H](CS[C@H]2CCCCC(=O)*)N1; Dap = NC[C@H](N)C(=O)O; Ahx = NCCCCCC(=O)O

Experiments:
[1] = test system: GOAT; conditions: ref [33], cited from earlier work; for Km: read-out: published Km, published values
[2] = target: T1, mouse GOAT (Mus musculus, UniProt P0C7A3); assay: Microsomal ghrelin octanoyltransferase assay; conditions: for Km: read-out: Km (apparent) for octanoyl-CoA; for Km / Vmax (apparent) for octanoyl-CoA / Vmax (apparent): 50 μM palmitoyl-CoA, 1 min at 30°C; for Km / Vmax (apparent) for octanoyl-CoA: 25 μg microsome protein; for Vmax (apparent): ghrelin substrate varied, 25 μg microsome protein (2 ng GOAT); for Vmax (apparent) / maximum reaction rate, fold lower than for the natural Ser analogs: 1 μM octanoyl-CoA; for maximum reaction rate, fold lower than for the natural Ser analogs: relative to the Ser3 analog
T1 sequence (P0C7A3 1-435): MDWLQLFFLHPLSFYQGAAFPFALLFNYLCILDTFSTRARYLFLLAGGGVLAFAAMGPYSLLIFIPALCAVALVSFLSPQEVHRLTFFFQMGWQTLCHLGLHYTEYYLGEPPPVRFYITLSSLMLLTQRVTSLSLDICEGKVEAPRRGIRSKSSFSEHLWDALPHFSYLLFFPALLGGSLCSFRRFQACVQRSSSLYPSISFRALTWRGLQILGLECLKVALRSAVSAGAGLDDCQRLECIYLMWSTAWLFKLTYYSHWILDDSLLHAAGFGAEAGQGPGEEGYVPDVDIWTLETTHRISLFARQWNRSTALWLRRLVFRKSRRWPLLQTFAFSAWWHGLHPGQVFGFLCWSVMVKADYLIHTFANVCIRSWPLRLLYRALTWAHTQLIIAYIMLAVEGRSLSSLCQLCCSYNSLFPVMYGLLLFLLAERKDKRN

[3] = cited from earlier work
[4] = target: T1, mouse GOAT; assay: Ghrelin octanoyltransferase assays at varying pH; format: biochemical; conditions: 7.5 μM and 100 μM substrate, 1 min, Bis-Tris propane pH 6–9

Molecule: N[C@@H](CO)C(=O)O [Ser]
sidechain pKa (ROH to RO-) ([3]; ref [37]): ~ 13

Molecule: NCC(N)C(=O)O (stereo not shown) [amino-Ala, 2,3-diaminoproprionic acid]
sidechain pKa (RNH3+ to RNH2) ([3]; peptide-incorporated residue, ref [36]): ~ 8

Molecule: GSSFLSPEHQ[Ahx]K(Biotin)G [Ghrelin10]
variation of octanoylation rate across pH 6–9 [4]: ≤ 2 fold | Vmax (apparent) [2]: 160 ± 10 nmol/min/mg | fold higher apparent Km than Ghrelin27 ([2]; relative to Ghrelin27): ~ 10 fold

B1: proghrelin-His8: proghrelin with His8 tag; proghrelin is likely the natural substrate for GOAT (protein, UniProt Q9UBU3 24-117, looked up)
pro-form: GSSFLSPEHQRVQQRKESKKPPAKLQPRALAGWLRPEDGGQAEGAEDELEVRFNAPFDVGIKLSGVQYQQHSQALGKFLQDILWEEAKEAPADK
modifications: pro-form His8 tag
Km [1]: 6 µM

Now from value to molecule, other results behind:

Km ([2]; vs 10 μM Ghrelin27): 0.44 ± 0.04 µM | Km ([2]; vs 80 μM Ghrelin10): 0.81 ± 0.04 µM | Vmax (apparent) for octanoyl-CoA ([2]; vs 10 μM Ghrelin27): 250 ± 8 nmol/min/mg | Vmax (apparent) for octanoyl-CoA ([2]; vs 80 μM Ghrelin10): 190 ± 4 nmol/min/mg
Molecule: CCCCCCCC(=O)SCCNC(=O)CCNC(=O)[C@H](O)C(C)(C)COP(=O)(O)OP(=O)(O)OC[C@H]1O[C@@H](n2cnc3c(N)ncnc32)[C@H](O)[C@@H]1OP(=O)(O)O [Octanoyl-CoA, reference compound]
Km [1]: 0.6 µM | microsomal octanoyl-CoA hydrolysis ([1]; with 50 μM palmitoyl-CoA, under the conditions of the assay): < 25%

variation of octanoylation rate across pH 6–9 [4]: ≤ 2 fold | Vmax (apparent) [2]: 74 ± 8 nmol/min/mg | maximum reaction rate, fold lower than for the natural Ser analogs [2]: approximately 2 fold
Molecule: GS(Dap)FLSPEHQ(Ahx)K(Biotin)G [Dap3-Ghrelin10]

Vmax (apparent) [2]: 230 ± 10 nmol/min/mg | fold lower apparent Km relative to Ghrelin10 ([2]; relative to Ghrelin10): 10 fold
Molecule: GSSFLSPEHQRVQQRKESKKPPAKLQPK (Biotin)G (GSSFLSPEHQRVQQRKESKKPPAKLQPK-{Gly(Biotin)}; not fully specified) [Ghrelin27]

Vmax (apparent) [2]: 85 ± 5 nmol/min/mg | maximum reaction rate, fold lower than for the natural Ser analogs [2]: approximately 2 fold
Molecule: GS[Dap]FLSPEHQRVQQRKESKKPPAKLQPK(Biotin)G [Dap3-Ghrelin27]
